In PubChem BioAssay (NCI):
Where “and” joins values, the source holds several entries; their conditions need not be identical. Identical values can stand only once.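 These data come from cells grown in 96-well plates and exposed to compound for 48 hours at five concentrations. GI50 marks 50% less growth. Definition used: TGI = concentration required for complete inhibition of growth.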

Experiments:
Assay in all cases: growth of human tumour cells (NCI), 48 h
[1] = system: EKVX NSCLC
[2] = system: HCT-15 colon
[3] = system: COLO 205 colon
[4] = system: MCF7 breast
[5] = system: NCI-H522 lung
[6] = system: BT-549 breast
[7] = system: OVCAR-4 ovarian
[8] = system: SF-295 CNS
[9] = system: OVCAR-3 ovarian
[10] = system: IGROV1 ovarian

| SMILES | GI50 [1] [µM] | TGI [1] | GI50 [2] [µM] | TGI [2] | GI50 [3] [µM] | TGI [3] | GI50 [4] [µM] | TGI [4] | GI50 [5] [µM] | TGI [5] | GI50 [6] [µM] | TGI [6] [µM] | GI50 [7] [µM] | TGI [7] | GI50 [8] [µM] | TGI [8] | GI50 [9] [µM] | TGI [9] | GI50 [10] [µM] | TGI [10] |
| --- | --- | --- | --- | --- | --- | --- | --- | --- | --- | --- | --- | --- | --- | --- | --- | --- | --- | --- | --- | --- |
| CCC(C)(C)C(=O)O[C@H]1C[C@@H](C)C=C2C=C[C@H](C)[C@H](CC[C@@H]3C[C@@H](O)CC(=O)O3)[C@H]21 | 2.78 | 19.3 µM and > 30 µM | 2.15 | 19 µM and > 30 µM | 4.14 | 14.7 µM and 23.6 µM | 12.2 | 26.7 µM | 0.826 | 5.26 µM | 4.61 | 18.2 | 6.1 | 20.5 µM and > 30 µM | 0.434 | 8.03 µM and 2.61 µM | 8.77 | 21.4 µM and > 30 µM | 2.08 | 13.2 µM and 4.5 µM |
| CC(=O)N1c2ccccc2C23CCN(C)CC4C(C)OCC(C4CC2=O)C13 (stereo not drawn) |  | > 100 µM |  | > 100 µM |  | > 100 µM |  | > 100 µM |  | > 100 µM |  | > 100 |  | > 100 µM |  | > 100 µM |  |  |  | > 100 µM |
| O=[N+]([O-])c1ccc(Br)c([N+](=O)[O-])c1 | 1.84 | 4 µM | 1.93 | 4.59 µM | 1.72 | 3.32 µM | 1.9 | 4.75 µM | 0.163 | 0.355 µM | 5.32 | 10.9 | 1.72 | 3.19 µM | 2.38 | 5.96 µM | 1.88 | 3.38 µM | 1.92 | 3.94 µM |
| COc1cc(C(=O)c2ccc3c(c2)OCO3)cc(OC)c1OC | 3.77 | > 100 µM | 0.928 | > 100 µM | 1.37 | 6.2 µM | 0.824 | > 100 µM | 1.4 | 8.84 µM | 7.09 | > 100 | 5.14 | > 100 µM | 1.55 |  | 1.4 | 3.93 µM | 1.45 | > 45.5 µM |
| COC(=O)NC1C(C)OC(OC2C/C=C(/C)C3C=CC4C(OC5CC(OC6CC(O)C(OC7CC(O)C(OC)C(C)O7)C(C)O6)C(O)C(C)O5)C(C)CC(C)C4C3(C)/C(O)=C3\C(=O)OC4(CC(C)C(CO)=CC4/C=C\2C)C3=O)CC1(C)[N+](=O)[O-] (stereo not drawn) | 16.7 | 50 µM and 19.3 µM |  | 50 µM and 40.8 µM | 9.29 | 16.3 µM and 13 µM | 11.8 | 44 µM and 13.3 µM |  | 11.7 µM and 22.7 µM |  | 41.4 |  | 11.8 µM |  | 50 µM and 38.9 µM | 9.64 | 21 µM and 19.4 µM | 12.7 | 34 µM and 28.5 µM |
| C1=Cc2ccccc2Nc2ccccc21 | 50 | > 100 µM | > 100 | > 100 µM | > 100 | > 100 µM | 74.7 | > 100 µM | > 100 | > 100 µM | > 100 | > 100 | > 100 | > 100 µM | > 100 | > 100 µM | > 100 | > 100 µM | > 100 | > 100 µM |
| CN(C)c1ccc(N2Cc3ccccc3OC3=C2C(=O)c2c(O)ccc(O)c2C3=O)cn1 | 0.242 | 1.21 µM | 0.178 | 0.502 µM | 0.174 | 0.38 µM | 0.15 | 0.456 µM | 0.0535 | 0.217 µM | 0.195 | 0.507 | 0.33 | 1.29 µM | 1.8 | 4.32 µM | 0.233 | 0.695 µM | 0.28 | 1 µM |
| CCN(CC)CCCC(C)Nc1cnc(C(=O)Nc2ccc(Cl)c3cccnc23)cn1 (stereo not drawn) | 3.98 | 17.2 µM | 2.29 | 6.3 µM | 1.58 | 3.23 µM | 1.68 | 4.39 µM | 2.07 | 4.34 µM | 1.59 | 3.08 | 2.42 | 6.99 µM | 2.11 | 4.92 µM | 2.01 | 3.97 µM | 1.62 | 4.11 µM |
| CCOc1cccc(/C=N/NC(=O)c2ccc(Nc3ccnc(C(F)(F)F)c3)cc2)c1O | 1.21 | > 81.8 µM | 0.515 | > 100 µM | 1.14 | > 38.3 µM | 0.7 | > 59 µM | 16.9 | > 82.8 µM | 1.88 | > 85 | 0.755 | > 100 µM | 1.28 | 40.6 µM | 0.298 | 28 µM | 2.32 | > 23.9 µM |
| COc1ccc2c(c1)C(=O)/C(=C/c1cccc(OCC(=O)Nc3nc4c(s3)CCCC4)c1)O2 | 2.52 | 8.73 µM | 1.54 | 3.19 µM | 0.729 | 2.02 µM | 2.83 | 11.8 µM | 0.704 | 2.25 µM | 1.74 | 4.49 | 2.57 | 8.52 µM | 3.7 | 15.8 µM | 0.304 | 0.865 µM | < 0.0153 | 0.054 µM |
| O=c1c2cccc(Cl)c2sc2c(NCCCNCCO)nc3ccccc3c12 | 3.4 | 17.5 µM | 1.54 | 3.33 µM | 1.9 | 4.39 µM | 1.13 | 2.66 µM | 1.99 | 4.42 µM | 14.8 | 30.6 | 5.43 | 19.6 µM | 6.29 | 20.2 µM | 2.28 | 6.19 µM | 0.941 | 6.86 µM |
| Cc1nn(-c2nc3ccccc3s2)c(C)c1Oc1ccccc1O | 10.4 | 22.3 µM | 0.762 | 17.7 µM | 15.7 | 31.1 µM | 4.19 | 24.6 µM | 5.4 | 28.9 µM | 12 | 25.5 | 10.3 | 29.5 µM | 3.2 | 17.2 µM | 9.98 | 21.5 µM | 12.6 | 35.8 µM |
| CC1=C[C@H]2c3c(c(O)c(O)c4oc5c(C)cccc5c(=O)c34)[C@H](c3cc(O)c(O)c4oc5c(C)cccc5c(=O)c34)[C@H]2C(C)(C)C1 | 2.34 | 11 µM | 1.29 | 10.9 µM | 2.41 | 6.8 µM | 2 | 6.3 µM | 1.97 | 4.29 µM | 1.9 | 5.04 | 1.51 | 14.7 µM | 1 | 2.84 µM | 1.52 | 9.34 µM | 1.39 | 5.69 µM |
